Reference: patent publication US20260217701A1, “SELECTIVE BET INHIBITORS AND USES THEREOF” (Tay Therapeutics Limited, priority 2022, published 2026)
Where “and” joins values, the source holds several entries; their conditions need not be identical. Identical values can stand only once.

Assays:
[1] = Pharmacokinetics of Compound A in the CIA study (groups 8 and 9); type: in vivo; conditions: Lewis rats
Protocol: (§1) Blood samples were collected from animals in group 8 on Day 0, and blood samples were collected from group 9 on Day 20. Blood samples from group 8 and group 9 were collected at 0.25, 0.5, 1, 2, 4, 8, 10, 12, 13, and 24-hours following morning administration of their first dose of the compound. The second dose of the compound was administered after the 8-hour collection timepoint. All blood samples were collected at the eye socket and put into tubes containing EDTA-K2 as an anticoagulant and centrifuged at 4° C. at 4,000 g for 5 minutes. Plasma was transferred to a separate tube and stored at −75+15° C. for PK analysis. Pharmacokinetic analyses for Compound A in Lewis rats were performed as described in Experimental Method B.
as §1, with “−75±15°” for “−75+15°”, “Pharmacokinetic analyses for Compound A in Lewis rats were performed as described in Experimental Method B.” left out

[2] = UUO study: clinical observations; type: in vivo; conditions: UUO rats; 10 mg/kg
hydroxyproline = experiment: UUO study: hydroxyproline levels; type: in vivo, rats
Excerpt: Table 31 and FIGS. 27B-27C depict hydroxyproline levels in sham rats (black bar in FIG. 27B; square shape in FIG. 27C), UUO rats treated with vehicle (grey bar in FIG. 27B; circle shape in FIG. 27C), and UUO rats treated with Compound A (white bar in FIG. 27B; triangle shape in FIG. 27C).

anti-dsDNA antibodies = experiment: SLE (lupus) model: anti-dsDNA antibodies in serum by ELISA; type: in vivo, MRL/MpJ-Faslpr mice
Protocol: Female MRL/MpJ-Faslpr mice (The Jackson Laboratory) were used to assess the efficacy of Compound A in treating lupus. Starting when animals were 10 weeks of age, protein concentration in urine was measured using urine dipsticks.
At the start of the study, each group in the study had two animals that were 9 weeks old, and all others were 10 weeks old. Dosing of all animals with the test compounds began when the older animals were 11 weeks old. […] […] Dosing was at a consistent time each dosing day throughout the study.
Compound A may be formulated as illustrated in Experimental Method A (see Table 2E.). […] A stock solution of Compound A in DMSO (stock solution concentration of Compound A of 40 mg/mL) was prepared and aliquots for weekly preparations were frozen at −20° C. On each preparation day, a stock solution aliquot was thawed and diluted with other vehicle components to the desired concentration. Formulated Compound A and vehicle were at room temperature for dosing.
The study began when the older animals were 11 weeks old, and concluded when the older animals were 19 weeks old. Body weight was recorded once a week, with the exception of two weight measurements taken the first week of the study (when the older animals were 11 weeks old). Proteinuria was measured in the urine of animals with urine dipsticks once a week, starting when the older animals were 10 weeks old. […] Blood samples were taken retro-orbitally at the start of the study to establish a baseline (15 animals, 3 per group), and when the older animals were 16 weeks (all animals) and when animals were 19 weeks (all animals) at the conclusion of the study. Blood urea nitrogen (BUN) was measured in all animals at study termination in blood samples. After blood collection, animals were euthanized, perfused with PBS, and the left kidneys were collected and weighed and fixed in 10% buffered formalin. Left kidneys were then processed to a formalin-fixed, paraffin-embedded (FFPE) block, and histology was analyzed in Periodic Acid-Schiff-stained sections (1 section per slide), using the criteria described in Alperovich et al., Lupus, 16:18-24 (2007). Right kidneys were weighed and snap-frozen at −80° C. Spleens were also collected and weighed. SLE in animals treated with a BET inhibitor and vehicle.
Anti-dsDNA antibody test measures the amount of antibody to double-stranded deoxyribonucleic acid (anti-dsDNA) that may be present in the blood. Anti-dsDNA antibodies are highly specific markers of SLE as these antibodies are not thought to be present in other kinds of autoimmune disorder.

[3] = Rat PK study #4 (Compound A PO 0.2 and 1.0 mg/kg, propylene glycol formulation); type: in vivo, Lewis rats; conditions: 1 mg/kg and 10 mg/kg doses, rats

Compound: Cn1cc(-c2ccccc2)c(-c2cn(C)c(=O)c3[nH]c(-c4cnn(C(F)(F)F)c4)cc23)cc1=O [Compound A, 6-methyl-4-(1-methyl-2-oxo-5-phenyl-1,2-dihydropyridin-4-yl)-2-(1-(trifluoromethyl)-1H-pyrazol-4-yl)-1,6-dihydro-7H-pyrrolo[2,3-c]pyridin-7-one]
- period of increasing plasma concentration after oral administration [1]: approximately the first four hours
- Clinical observations assessed daily [2]: soft stools on just one study day
- Final Hydroxyproline Con., Mean (hydroxyproline; UUO rats + Compound A, group mean of 8): 0.66 μg/mg tissue
- Final Hydroxyproline Con., Mean ± SEM (hydroxyproline; UUO rats + Compound A, group of 8): 0.66 ± 0.05 μg/mg tissue
- Final Hydroxyproline Con. (hydroxyproline; UUO rats + Compound A, individual animals): 0.69 μg/mg tissue and 0.86 μg/mg tissue and 0.63 μg/mg tissue and 0.61 μg/mg tissue (2×) and 0.64 μg/mg tissue and 0.44 μg/mg tissue and 0.80 μg/mg tissue
- Hydroxyproline levels, difference between experimental groups (hydroxyproline; UUO rats, 10 mg/kg): No significant differences
- Anti-dsDNA Antibodies in serum, mean (anti-dsDNA antibodies; Compound A 1 mg/kg PO QD, Week 16): 240 units/mL
- Anti-dsDNA Antibodies in serum, mean (anti-dsDNA antibodies; Compound A 1 mg/kg PO QD, Week 19): 149 units/mL
- Anti-dsDNA Antibodies in serum, mean (anti-dsDNA antibodies; Compound A 3 mg/kg PO QD, Week 16): 112 units/mL
- Anti-dsDNA Antibodies in serum, mean (anti-dsDNA antibodies; Compound A 3 mg/kg PO QD, Week 19): 94 units/mL
- Anti-dsDNA Antibodies in serum, mean (anti-dsDNA antibodies; Compound A 10 mg/kg PO QD, Week 16): 47 units/mL
- Anti-dsDNA Antibodies in serum, mean (anti-dsDNA antibodies; Compound A 10 mg/kg PO QD, Week 19): 57 units/mL
- Anti-dsDNA antibodies in serum (anti-dsDNA antibodies; Week 16, 1 mg/mL): did not appear to be effective
- Anti-dsDNA antibodies in serum (anti-dsDNA antibodies; Week 16 and Week 19, 3 mg/mL): positive effect in reducing levels
- Anti-dsDNA antibodies in serum versus Vehicle group (anti-dsDNA antibodies; Week 16 and Week 19, Compound A (10 mg/mL) and Cyclophosphamide): effective in reducing levels to well below that seen with the Vehicle administered group
- Anti-dsDNA antibodies in serum (anti-dsDNA antibodies; Week 19, 1 mg/mL): effective in reducing the levels
- duration of exposure above the free EC50 BD2 BRD4 [3]: 24 h
